In US20240182475A1 (Université de Lausanne, priority 2021, published 2024):
pEC50: −log10 of the molar value.

Columns and labels:
recombinant human CSE = recombinant human CSE (Homo sapiens, UniProt P32929); assay: CSE activity (AzMC probe assay), H2S production by recombinant human CSE; format: biochemical; conditions: for CSE production of H2S (AzMC fluorescence, kinetic 2 h): 50 uM, 2 μg rCSE, 10 mM L-cysteine, 5 uM PLP, Tris-HCl pH 8, vs vehicle
Description: The activity of recombinant human CSE (rCSE) was tested in the presence of C5, compound 8 (50 uM), Z20 compound 13 (50 uM) or vehicle (DMSO). Briefly, compounds were added in reaction buffer (50 mM Tris-HCl, pH 8) containing 2 μg of rCSE, 10 mM CSE substrate L-cysteine, 5 uM pyridoxal 5′-phosphate (PLP). After addition of 10 μM of the H2S sensitive fluorescent probe 7-azido-4-methylcoumarin (AzMC) in a total volume of 100 μl, fluorescence was immediately measured in kinetic mode for 2 h at 37° C. with SpectraMax M5 reader, with excitation and emission wavelengths of 365 nm and 450 nm, respectively. Statistical analysis was determined using simple linear regression with p<0.0001 for C5 vs. vehicle and p<0.0002 for Z20 vs. vehicle.
Recombinant human CSE (1 μg/well) was incubated with various concentrations of compounds (all in final 0.1% DMSO), or with 0.1% DMSO as a control, in 10 mM sodium phosphate buffer pH 8.2. Next, 10 mM L-cysteine and 1 mM PLP and 10 μM of the probe AzMC were then added to reach 100 μL total volume. Fluorescence was measured for 3 h at 37° C. with excitation and emission wavelengths of 365 nm and 450 nm, respectively, in a 96-well half area black plate with transparent bottom.
Dose-response curve of each compound was performed, using triplicate wells for each tested doses. The background (10 mM sodium phosphate buffer with L-cysteine, PLP and AzMC) was subtracted from all values. Each mean value was converted to percent activity (0% defined as the smallest mean in each data set, 100% defined as the highest mean in each data set). The data were normalized using the four parameter logistic model (4PL) equation to calculate EC50 using GraphPad Prism.

MOVAS cells = assay: MOVAS cell calcification assay (Alizarin red); format: cell-based, mouse; conditions: for Mineralization (Alizarin red): 50 uM
Description: A) Alizarin red staining of MOVAS cells stimulated with sCPP for 24 h in DMEM+10% FBS and treated or not with 50 uM of compounds. […] Statistical analysis was determined using one-way ANOVA with ***p<0.001. C) Percentage of cytotoxicity (LDH %) in MOVAS treated or not with compounds for 24 h. D) MOVAS cells were seeded onto half-area 96-well plate and incubated overnight. Then C5 or C6 at 50 uM or vehicle (DMSO), L-cysteine at 10 mM, PLP at 5 uM and the H2S sensitive fluorescent probe AzMC at 10 μM were added. The fluorescence was immediately measured in kinetic mode for 2 h at 37° C. with SpectraMax M5 reader, with excitation and emission wavelengths of 365 nm and 450 nm, respectively.
A) Alizarin red staining of Movas cells stimulated with sCPP for 24 h in DMEM+10% FBS and treated or not with 50 uM of Z20. […] C) Percentage of cytotoxicity (LDH %) in murine chondrocytes treated or not with Z20 for 24 h. Statistical analysis was determined using one-way ANOVA with ***p<0.001.
Alizarin red staining of MOVAS cells stimulated with sCPP for 24 h in DMEM+10% FBS and treated or not with different concentrations of compounds (A: C6) and (B: Z20). The graphs show Alizarin red absorbance at 570-630 nm. Statistical analysis was determined using one-way ANOVA with *p<0.05, **p<0.01, ***p<0.001.
CPP were generated by preparing 20 ml DMEM containing 10% FBS, 1 mmol/L CaCl2, 3.5 mmol/L inorganic phosphate (1.36 mmol/L NaH2PO4 and 2.14 mmol/L Na2HPO4) (Aghagolzadeh et al. Atherosclerosis, 2016). After 7 days incubation at 37° C., the suspension was centrifuged at 25000 g for 2 h at 4° C., and the pellet containing CPP was resuspended in 1 ml DMEM and stored at −20° C. until further use.
Mouse vascular smooth muscle cell line (MOVAS) cells were cultured according to the manufacturer's guidelines in DMEM culture medium supplemented with 10% FBS. Cells were cultured at 37° C. in a humidified atmosphere with 5% CO2. All cell culture experiments in 96-well plates were performed in triplicates and were repeated independently two times.
For calcification experiments, cells were seeded in 96-well plates at a density of 50,000 cells/well and left to attach for 18 h. Calcification of cell monolayers was induced by CPP (equivalent to 50 μg Ca/mL) for 24 h at 37° C., 5% CO2 in presence of various concentrations of compounds (all in final 0.1% DMSO), or of 0.1% DMSO as a control, to reach a final volume of 200 μl/well. Calcium deposition was assessed by 0.5% w/v Alizarin Red staining (pH 4.2). Briefly, after PBS washing, methanol fixation for 10 min at 4° C., and milli-Q water washing, cells were incubated for 60 min with 200 μL Alizarin Red solution and then washed four times with milli-Q water. Quantification was performed after crystal dissolution with cetylpyridinium chloride (10%) for 18 h. The absorbance was measured at 570 and 630 nm using the Spectramax M5e reader (Molecular Devices). The background (alizarin red staining obtained with cells in the absence of CPP) was subtracted from all values.

[1] = system: primary human chondrocytes; assay: Primary human chondrocyte calcification (Alizarin red); format: cell-based; conditions: secondary CPP 24 h, 50 uM
Description: (a) WT and Cse-deficient chondrocytes were incubated with a CSE activator (SU004, 50 μM) previously identified by high-through put screen, or with the equivalent volume of DMSO (0.1%) for 24 hours in calcification medium. STS 25 mM was used as a positive control for calcification inhibition. Calcium-containing crystals were stained with Alizarin red and quantified. (b) Cytotoxicity was assessed by LDH measurement and expressed as % over 100% cytotoxicity. (c) IL-6 secretion was measured by ELISA in supernatant of WT chondrocytes incubated with SU004 50 μM or STS 25 mM for 24 hours in calcification medium. (d) Primary human chondrocytes from 3 OA patients (P1, P2, P3) were incubated with SU004 50 μM, or with the equivalent volume of DMSO (0.1%) for 24 hours in calcification medium. Calcium-containing crystals were stained with Alizarin red and quantified. (e) Cytotoxicity was assessed by LDH measurement and expressed as % over 100% cytotoxicity. (f) IL-6 secretion was measured by ELISA in supernatant of human chondrocytes incubated for 24 hours with SU004 50 μM in calcification medium. *p<0.05, ** p<0.01, ****p<0.0001.
1. Alizarin red staining of primary human chondrocytes stimulated with secondary CPP for 24 h in DMEM+10% FBS and treated or not with 50 uM of compounds.
Chondrocytes were isolated from cartilage pieces incubated overnight in the digestion enzyme Liberase™ (Roche). […]

Sequence of recombinant human CSE (P32929 whole entry): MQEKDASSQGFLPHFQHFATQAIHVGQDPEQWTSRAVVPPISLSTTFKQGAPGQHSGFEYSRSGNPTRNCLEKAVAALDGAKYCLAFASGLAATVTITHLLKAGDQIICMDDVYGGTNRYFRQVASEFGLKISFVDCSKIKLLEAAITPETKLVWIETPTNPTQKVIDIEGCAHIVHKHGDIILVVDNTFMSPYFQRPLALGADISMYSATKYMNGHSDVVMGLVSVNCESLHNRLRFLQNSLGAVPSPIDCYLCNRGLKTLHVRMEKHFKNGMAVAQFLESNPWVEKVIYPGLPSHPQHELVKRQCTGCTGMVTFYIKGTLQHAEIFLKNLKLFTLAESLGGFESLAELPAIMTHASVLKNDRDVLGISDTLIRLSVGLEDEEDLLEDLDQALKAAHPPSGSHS

CSE production of H2S (AzMC fluorescence, kinetic 2 h) (recombinant human CSE)	pEC50 (recombinant human CSE; EC50 calculated by the four-parameter logistic model)	SMILES	inhibition at 2 µM (MOVAS cells; Mus musculus, MOVAS, at 2 uM, read-out: Calcification assay Max calcification inhibition (%) at the indicated dose of compound) [%]	Mineralization (Alizarin red) (MOVAS cells; sCPP 24 h)	Mineralization (Alizarin red) [1]	Mineralization (Alizarin red absorbance 570-630 nm) (MOVAS cells; sCPP 24 h, different concentrations)
augments CSE production of H2S	7.16	Cn1ncc2c(Nc3cnn(CC4CCCO4)c3)ncnc21 (stereo not drawn) [Compound 8, N-{1-methyl-1H-pyrazolo[3,4-d]pyrimidin-4-yl}-1-[(oxolan-2-yl)methyl]-1H-pyrazol-4-amine]	38	inhibit murine vascular smooth muscle cells (MOVAS cells) mineralization	inhibit primary human chondrocyte mineralization	
augments CSE production of H2S		CCn1cnc2c(Nc3cnn(CC4CCCO4)c3)ncnc21 (stereo not drawn) [Compound 13]		inhibits MOVAS cells mineralization	inhibit primary human chondrocyte mineralization	Dose-dependent effect
